We go through twelve molecules from ChEMBL document CHEMBL4680193, “Isoindoline scaffold-based dual inhibitors of HDAC6 and HSP90 suppressing the growth of lung cancer in vitro and in vivo” (Eur J Med Chem, 2020).

The test system of one assay is A549. The assay can be described thus: Growth inhibition of human A549 cells incubated for 48 hrs by SRB assay. The assay is classed as functional. In general terms: The SRB assay estimates cell density from bound dye.
The target of a further assay is Histone deacetylase 3 (Homo sapiens, UniProt O15379).
The species entered for assay [1] is Homo sapiens. As to the kind of experiment: Selectivity index, ratio of IC50 for recombinant human HDAC3 to IC50 for recombinant human HDAC6.
Another assay deals with Histone deacetylase. The format is tissue-based, Homo sapiens. The following applies: hela.
Assay [2] concerns NCI-H1975. The assay can be described thus: cells. The assay is classed as functional. The conditions noted are these: Homo sapiens, time 48 hrs.
The target of assay [3] is Heat shock protein HSP 90-alpha (Homo sapiens, UniProt P07900). As to the kind of experiment: Inhibition of HSP90a (unknown origin).
The target of the next assay is Histone deacetylase 1 (Homo sapiens, UniProt Q13547). The assay can be described thus: Inhibition of recombinant human C-terminal FLAG-His-tagged HDAC1 (1 to 482 residues) expressed in Sf21 cells using RHK-K(Ac)-AMC as substrate incubated for 60 mins by fluorimetry analysis.
The target of assay [4] is T1, Protein deacetylase HDAC6 (Homo sapiens, UniProt Q9UBN7).
T1 sequence (Q9UBN7 whole entry): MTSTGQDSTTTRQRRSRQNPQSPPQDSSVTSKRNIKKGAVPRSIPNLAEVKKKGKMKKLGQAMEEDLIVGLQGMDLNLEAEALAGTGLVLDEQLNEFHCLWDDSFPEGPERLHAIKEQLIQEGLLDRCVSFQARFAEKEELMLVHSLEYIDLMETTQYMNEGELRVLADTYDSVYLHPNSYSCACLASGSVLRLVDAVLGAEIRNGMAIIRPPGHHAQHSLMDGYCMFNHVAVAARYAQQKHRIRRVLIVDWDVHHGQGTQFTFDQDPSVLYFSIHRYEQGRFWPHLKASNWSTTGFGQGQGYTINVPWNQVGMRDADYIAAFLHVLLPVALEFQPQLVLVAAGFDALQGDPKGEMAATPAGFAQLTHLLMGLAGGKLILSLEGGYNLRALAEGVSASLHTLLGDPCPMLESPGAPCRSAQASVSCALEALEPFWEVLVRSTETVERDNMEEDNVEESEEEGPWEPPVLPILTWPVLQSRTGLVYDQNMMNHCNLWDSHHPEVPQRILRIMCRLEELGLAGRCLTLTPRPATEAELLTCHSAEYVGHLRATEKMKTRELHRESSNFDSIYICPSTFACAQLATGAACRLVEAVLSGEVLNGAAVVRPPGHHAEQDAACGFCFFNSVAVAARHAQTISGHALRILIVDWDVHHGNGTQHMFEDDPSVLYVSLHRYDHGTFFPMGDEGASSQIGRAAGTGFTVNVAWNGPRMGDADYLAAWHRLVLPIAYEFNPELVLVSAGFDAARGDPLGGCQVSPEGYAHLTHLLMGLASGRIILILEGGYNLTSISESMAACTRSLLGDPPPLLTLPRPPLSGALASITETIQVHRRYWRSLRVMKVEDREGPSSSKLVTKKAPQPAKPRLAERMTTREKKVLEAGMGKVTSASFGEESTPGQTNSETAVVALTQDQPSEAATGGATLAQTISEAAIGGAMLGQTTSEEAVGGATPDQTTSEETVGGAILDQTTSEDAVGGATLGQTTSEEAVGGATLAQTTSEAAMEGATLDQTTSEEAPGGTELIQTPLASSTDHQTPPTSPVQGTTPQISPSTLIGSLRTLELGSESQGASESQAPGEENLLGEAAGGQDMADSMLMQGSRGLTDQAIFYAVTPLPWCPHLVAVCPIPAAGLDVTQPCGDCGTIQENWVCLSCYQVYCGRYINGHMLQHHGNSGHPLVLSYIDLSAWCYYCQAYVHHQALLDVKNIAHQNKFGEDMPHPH
As to the kind of experiment: Inhibition of recombinant human HDAC6 using RHK-K(Ac)-AMC as substrate by fluorescence based assay.

For assay [5], the species on record is Homo sapiens. As to the kind of experiment: Selectivity index, ratio of IC50 for recombinant human C-terminal FLAG-His-tagged HDAC1 (1 to 482 residues) expressed in Sf21 cells to IC50 for recombinant human HDAC6.
For the next assay, the target named is T2, Histone deacetylase 8 (Homo sapiens, UniProt Q9BY41).
T2 sequence (Q9BY41 whole entry): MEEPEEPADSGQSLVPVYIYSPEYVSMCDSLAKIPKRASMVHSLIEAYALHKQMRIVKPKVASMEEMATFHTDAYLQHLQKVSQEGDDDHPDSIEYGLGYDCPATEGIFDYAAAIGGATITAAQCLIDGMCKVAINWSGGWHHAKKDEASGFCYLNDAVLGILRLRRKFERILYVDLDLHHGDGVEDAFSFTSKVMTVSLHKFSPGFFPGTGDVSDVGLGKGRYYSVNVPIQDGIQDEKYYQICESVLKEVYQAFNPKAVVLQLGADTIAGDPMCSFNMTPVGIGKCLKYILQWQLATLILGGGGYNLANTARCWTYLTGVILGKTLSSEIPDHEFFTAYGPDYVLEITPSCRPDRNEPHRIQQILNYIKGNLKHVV
The assay can be described thus: Inhibition of recombinant human HDAC8 using RHK-K(Ac)-AMC as substrate by fluorescence based assay.

The species named for assay [6] is Homo sapiens. The assay can be described thus: Selectivity index, ratio of IC50 for recombinant human HDAC8 to IC50 for recombinant human HDAC6.
Assay [7] concerns the target T3, Heat shock protein HSP90 (Homo sapiens) (UniProt P07900+P08238). As to the kind of experiment: Inhibition of HSP90 in human NCI-H1975 cells assessed as decrease in Akt Ser473 phosphorylation at 1 to 3 uM measured after 24 hrs by Western blot analysis. The assay is classed as cell-based. The conditions noted are these: dose 1-3 µM.
Assay [8] has as its target T3, Heat shock protein HSP90 (Homo sapiens). As to the kind of experiment: Inhibition of HSP90 in human NCI-H1975 cells assessed as decrease in STAT3 Tyr705 phosphorylation at 1 to 3 uM measured after 24 hrs by Western blot analysis. The format is cell-based. The following applies: dose 1-3 µM. In general terms: In western blotting, separated proteins are transferred to a membrane and probed.

The test system of assay [9] is NCI-H1975. As to the kind of experiment: Antitumor activity against human NCI-H1975 cells xenografted in BALB/c mouse assessed as reduction in tumor growth at 20 mg/kg, ip administered for 2 weeks and measured after 2 week relative to control. The format is functional. The following applies: 336 h, read-out: TGI. Background: A xenograft is tissue or cells of one species grown in another, often human tumour cells in immunodeficient mice.

Active and inactive are the calls of the source. No cut-off for these calls is given here.

Chain of Histone deacetylase 3 (O15379 whole entry): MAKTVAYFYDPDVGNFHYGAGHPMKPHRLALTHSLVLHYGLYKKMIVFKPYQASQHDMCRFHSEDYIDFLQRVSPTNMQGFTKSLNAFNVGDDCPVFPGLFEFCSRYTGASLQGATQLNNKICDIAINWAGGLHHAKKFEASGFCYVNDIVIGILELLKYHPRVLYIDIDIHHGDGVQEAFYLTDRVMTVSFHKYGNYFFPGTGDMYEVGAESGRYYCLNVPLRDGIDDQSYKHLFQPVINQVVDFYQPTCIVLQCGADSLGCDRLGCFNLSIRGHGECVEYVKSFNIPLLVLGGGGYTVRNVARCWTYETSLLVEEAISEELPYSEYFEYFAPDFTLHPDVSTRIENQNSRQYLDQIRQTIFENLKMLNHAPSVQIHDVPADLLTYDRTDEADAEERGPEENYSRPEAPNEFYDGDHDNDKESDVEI
Chain of Histone deacetylase 1 (Q13547 whole entry, the tested form may be a part): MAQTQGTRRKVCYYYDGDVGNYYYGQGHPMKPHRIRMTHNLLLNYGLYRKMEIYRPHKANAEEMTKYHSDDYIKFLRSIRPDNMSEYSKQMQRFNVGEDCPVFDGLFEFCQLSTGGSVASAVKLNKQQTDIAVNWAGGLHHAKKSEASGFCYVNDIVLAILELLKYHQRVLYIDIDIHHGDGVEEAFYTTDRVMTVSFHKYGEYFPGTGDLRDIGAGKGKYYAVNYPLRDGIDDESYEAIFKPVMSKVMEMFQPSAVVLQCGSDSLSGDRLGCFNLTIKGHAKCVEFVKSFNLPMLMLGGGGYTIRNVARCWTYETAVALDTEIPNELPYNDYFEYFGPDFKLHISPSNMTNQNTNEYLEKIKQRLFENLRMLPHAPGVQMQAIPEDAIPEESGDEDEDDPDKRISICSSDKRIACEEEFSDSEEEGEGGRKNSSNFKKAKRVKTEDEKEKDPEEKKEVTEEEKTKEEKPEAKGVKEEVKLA

`CC(C)c1cc(C(=O)N2Cc3ccc(NC(=O)CCCC(=O)NO)cc3C2)c(O)cc1O`: the GI50 in the assay on A549 (Homo sapiens, A549) was greater than 10000 nM; in the assay on NCI-H1975 [2] it was greater than 10000 nM. Also, the IC50 was 4410 nM on Histone deacetylase 3; greater than 1000 nM against Histone deacetylase; 136 nM in assay [3]; 7430 nM on Histone deacetylase 1; 68.6 nM in [4]. The results for the Ratio IC50 in the assay listed under Homo sapiens [1] and in the assay listed under Homo sapiens [5] were 64.3 and 108, respectively.
Take `CC(C)c1cc(C(=O)N2Cc3ccc(NC(=O)CCCCC(=O)NO)cc3C2)c(O)cc1O`: the GI50 with A549 (Homo sapiens, A549) stood at 870 nM; in the assay with NCI-H1975 [2], 1640 nM. For the same molecule, the IC50 at Histone deacetylase 8 is 7420 nM; against Histone deacetylase 3, 2810 nM; at Histone deacetylase it was greater than 1000 nM; in assay [3], 109 nM; on Histone deacetylase 1, 6880 nM; in assay [4] it was 330 nM. The Ratio IC50 in the assay filed under Homo sapiens [1] was found to be 8.5; in the assay filed under Homo sapiens [5], 20.8; in the assay filed under Homo sapiens [6] it was 22.5.
Turning to `CC(C)c1cc(C(=O)N2Cc3ccc(/C=C/C(=O)NO)cc3C2)c(O)cc1O`, the GI50 is 2740 nM in the assay with A549 (Homo sapiens, A549) and 32000 nM with NCI-H1975 [2]. The IC50 on Histone deacetylase 8 was 675 nM; on Histone deacetylase 3 it was 3990 nM; against Histone deacetylase it was greater than 1000 nM; in assay [3], 104 nM; at Histone deacetylase 1, 3150 nM; in assay [4] it was 303 nM. The figures for the Ratio IC50 in the assay filed under Homo sapiens [1], in the assay listed under Homo sapiens [5] and in the assay listed under Homo sapiens [6] were 13.2, 10.4 and 2.2, respectively.
In the case of `CC(C)c1cc(C(=O)N2Cc3ccc(NC(=O)CCCCCC(=O)NO)cc3C2)c(O)cc1O`, the GI50 in the assay on A549 (Homo sapiens, A549) came out at 2220 nM; in the assay with NCI-H1975 [2] it was 680 nM. In addition, the IC50 on Histone deacetylase 8 came to 2010 nM; against Histone deacetylase 3 it was 2210 nM; against Histone deacetylase, 521.4 nM; in assay [3], 43.9 nM; on Histone deacetylase 1, 3810 nM; in assay [4], 9.44 nM. For the same molecule, the Ratio IC50 in the assay filed under Homo sapiens [1] was determined as 234; in the assay listed under Homo sapiens [5], 404; in the assay filed under Homo sapiens [6], 213.
Regarding `CC(C)c1cc(C(=O)N2Cc3ccc(NCc4ccc(CN5CCN(C)CC5)cc4)cc3C2)c(O)cc1O`, the inhibition entry in [7] and in [8] was “Active” throughout.
With `CC(C)c1cc(C(=O)N2Cc3ccc(NC(=O)CCCCCCC(=O)NO)cc3C2)c(O)cc1O`, the GI50 came to 2920 nM in the assay with A549 (Homo sapiens, A549) and 434000 nM in the assay with NCI-H1975 [2]. Further, the IC50 turned out to be 1510 nM at Histone deacetylase 8; 388 nM at Histone deacetylase 3; 1683 nM on Histone deacetylase; 43.9 nM in assay [3]; 554 nM on Histone deacetylase 1; 2.21 nM in assay [4]. Besides, the figures for the Ratio IC50 in the assay listed under Homo sapiens [1], in the assay listed under Homo sapiens [5] and in the assay listed under Homo sapiens [6] were 175, 250 and 683, respectively.
`CC(C)c1cc(C(=O)N2Cc3ccc(NCc4ccc(C(=O)NO)cc4)cc3C2)c(O)cc1O`: the GI50 in the assay on A549 (Homo sapiens, A549) turned out to be 370 nM; in the assay on NCI-H1975 [2], 130 nM. Further, the IC50 is 420 nM at Histone deacetylase 8; 9850 nM on Histone deacetylase 3; greater than 1000 nM at Histone deacetylase; 66 nM in [3]; greater than 10000 nM on Histone deacetylase 1; 33.3 nM in assay [4]. The Ratio IC50 in the assay filed under Homo sapiens [1] is 296; in the assay filed under Homo sapiens [5], greater than 300; in the assay listed under Homo sapiens [6], 12.6.
As for `CC(C)c1cc(C(=O)N2Cc3ccc(NC(=O)CCCCCCCC(=O)NO)cc3C2)c(O)cc1O`, the GI50 with A549 (Homo sapiens, A549) was 235000 nM; with NCI-H1975 [2], 1070 nM. For the same molecule, the IC50 at Histone deacetylase 8 is greater than 10000 nM; against Histone deacetylase 3, 494 nM; against Histone deacetylase, 198.9 nM; in assay [3], 422 nM; at Histone deacetylase 1 it was 1080 nM; in [4], 2.12 nM. Moreover, the figures for the Ratio IC50 in the assay listed under Homo sapiens [1], in the assay listed under Homo sapiens [5] and in the assay filed under Homo sapiens [6] were 233, 507 and greater than 4720, respectively.
For `CC(C)c1cc(C(=O)N2Cc3ccc(NC(=O)CCC(=O)NO)cc3C2)c(O)cc1O`, the GI50 in the assay with A549 (Homo sapiens, A549) was 830 nM; in the assay with NCI-H1975 [2] it was 39000 nM. Further, the IC50 at Histone deacetylase 8 is 7320 nM; at Histone deacetylase, greater than 1000 nM; in assay [3], 123 nM; in [4], greater than 10000 nM.
`CN(C)C/C=C/C(=O)Nc1cc2c(Nc3ccc(F)c(Cl)c3)ncnc2cc1O[C@H]1CCOC1` [AFATINIB]: in the assay with NCI-H1975 [9], the inhibition in vivo at 20 mg/kg was 63.8%.
For the molecule `COc1c(C)cnc(Cn2cnc3c(Cl)nc(N)nc32)c1C` [BIIB021], the GI50 in the assay on A549 (Homo sapiens, A549) is 330 nM; with NCI-H1975 [2] it was 200 nM. The IC50 at Histone deacetylase is recorded as greater than 1000 nM.
In the assay on A549, `O=C(CCCCCCC(=O)Nc1ccccc1)NO` [VORINOSTAT] returned a GI50 of 1020 nM. Further, in assay [3], the IC50 was greater than 1000 nM.

For orientation: GI50 means the concentration giving 50% growth inhibition. By IC50 is commonly meant the point on the concentration scale where inhibition reaches its midpoint.
